Reference: US20190183812A1, “Compounds For The Treatment Of Neuromuscular Disorders” (NMD PHARMA A/S, priority 2017, published 2019)
Where a name gives a salt, the structure may show the parent alone. Read-outs that look alike come from different tables or passages of the source.

Tests used:
rat soleus muscles [1] = assay: Mg2+ concentration required to depress nerve-stimulated force by 50% (Kd,Mg2+), combination with 3,4-AP; settings: 3,4-AP (10 μM) alone
Description: FIGS. 6A-6E. […] Muscles from 4-week-old rats were stimulated to contract by activating the motor nerve with short duration pulses in field stimulation. Muscles contracted every 10 min for 2 s in response to 30 Hz stimulation. Four different experimental conditions were used. […] C) similar to A) but this muscle had been pre-incubated with 3,4-AP. […] The force integral (AUC) was determined at each extracellular Mg^2+ concentration. AUC was plotted against Mg^2+ concentration and the data was fitted to a sigmoidal function. This provided the extracellular Mg^2+ concentration that was required to reduce the nerve-stimulated force to 50% (Mg50) under the four different conditions (see Table 5).
While the use of tubocurarine mimics conditions with reduced neuromuscular transmission due to post-synaptic dysfunction (myasthenia gravis, neuromuscular blockade), the experiments with elevated extracellular Mg^2+ mimics conditions with pre-synaptic dysfunction akin to a range of neuromuscular disorders including Lambert Eaton syndrome, motor neuron disorders and polyneuropathy. Patients with Lambert Eaton syndrome are commonly treated with inhibitors of voltage gated K^+ channels such as 3,4-diaminopyridine (3,4-AP). Based on this it was determined whether recovery of nerve-stimulated force at elevated extracellular Mg^2+ with CIC-1 inhibiting compounds could be added to force recovery with 3,4-AP. […] FIG. 6A-D show recordings of nerve-stimulated force production at different Mg^2+ concentrations when tested under these four experimental conditions. […] To quantify the effect of compounds on Mg^2+ sensitivity the force at the different Mg^2+ concentrations was determined. In plots of nerve-stimulated force against Mg^2+ concentration (FIG. 6E) the Kd,Mg^2+ was determined by fitting four parameter sigmoidal function to the data. Kd, Mg^2+ for the different compounds have been collected in Table 5.

[2] = tested on: isolated rat soleus muscles; assay: Recovery of nerve-stimulated force in isolated rat soleus muscles exposed to sub-maximal tubocurarine
Description: (§1) Experiments were performed using rat soleus muscles from either young (4-wk-old) or adult Wistar rats (12-14-week-old). Animal handling, killing and isolation of muscle is described elsewhere All experiments were performed using normal Krebs-Ringer bicarbonate solution (NKR). In solutions with elevated Mg^2+, MgCl2 was added to NKR-solution causing minor increases in osmolarity and ionic strength. In solutions with elevated K^+, 4 mM NaCl was replaced by 4 mM KCl in the NKR.
(§2) In all contraction experiments, isometric force production was determined and force produced during contractions was quantified by measuring the integral of the force response (AUC). Stimulation and force recordings have been described elsewhere. […] In these latter experiments, extracellular recordings of action potentials (M-waves) could be measured without temporal overlap with stimulation artefacts.
The aim was to find compounds that by inhibition of CIC-1 channels can recover nerve-stimulated force under conditions of fatigue including conditions where fatigue is caused by compromised neuromuscular transmission. Neuromuscular transmission dysfunction can develop because of both pre- and/or post-synaptic complications in connection with a disorder or as part of neuromuscular blockade during/after surgery. In the initial series of drug testing, experiments were performed with isolated muscles in the presence of sub-maximal ACh receptor antagonist tubocurarine. Since the inclusion of tubocurarine caused a partial loss of neuromuscular transmission this experiment mimics the conditions in myasthenia gravis and neuromuscular blockade. To mimic conditions with pre-synaptic complication (Lambert Eaton syndrome, motor neuron disorder, polyneuropathy) the intact nerve-muscle preparations were incubated at elevated extracellular Mg^2+, which is known to suppress release of ACh from nerve terminals of motor neurons.
To identify CIC-1 inhibitors that could be used for treatment of neuromuscular disorders we repeated the experiment shown in FIG. 2A but instead of adding 9-AC we added the compounds of interest in different concentrations within the range from 10 to 500 μM. […] For comparison with the muscle only exposed to tubocurarine (grey trace), the two traces have been overlaid. […] For comparison, muscles only exposed to tubocurarine have been included. The dotted line indicates the recovery of force with C8 when compared to the force production before its addition. This value was used in Table 1 for evaluation of the efficacy of the different compounds in recovering force.

[3] = tested on: isolated rat soleus muscles; assay: Recovery of nerve-stimulated force in isolated rat soleus muscles at elevated extracellular Mg2+ (3.5 mM)
Description: as §1, §2
The aim was to find compounds that by inhibition of CIC-1 channels can recover nerve-stimulated force under conditions of fatigue including conditions where fatigue is caused by compromised neuromuscular transmission. […]
The next series of experiments determined whether the compounds that recovered nerve-stimulated force in the presence of tubocurarine could also recover nerve-stimulated force at elevated extracellular Mg^2+.

human CIC-1 channels = target: T1, human CIC-1 channels (Homo sapiens, UniProt P35523); assay: Automated patch-clamp on human CIC-1 expressed in CHO cells; assay type: cell-based; settings: compound added to the intracellular solution vs vehicle control patches; positive shift reflects CIC-1 inhibition
T1 construct: host or cells: CHO (Chinese hamster ovary) cells
T1 sequence (P35523 whole entry): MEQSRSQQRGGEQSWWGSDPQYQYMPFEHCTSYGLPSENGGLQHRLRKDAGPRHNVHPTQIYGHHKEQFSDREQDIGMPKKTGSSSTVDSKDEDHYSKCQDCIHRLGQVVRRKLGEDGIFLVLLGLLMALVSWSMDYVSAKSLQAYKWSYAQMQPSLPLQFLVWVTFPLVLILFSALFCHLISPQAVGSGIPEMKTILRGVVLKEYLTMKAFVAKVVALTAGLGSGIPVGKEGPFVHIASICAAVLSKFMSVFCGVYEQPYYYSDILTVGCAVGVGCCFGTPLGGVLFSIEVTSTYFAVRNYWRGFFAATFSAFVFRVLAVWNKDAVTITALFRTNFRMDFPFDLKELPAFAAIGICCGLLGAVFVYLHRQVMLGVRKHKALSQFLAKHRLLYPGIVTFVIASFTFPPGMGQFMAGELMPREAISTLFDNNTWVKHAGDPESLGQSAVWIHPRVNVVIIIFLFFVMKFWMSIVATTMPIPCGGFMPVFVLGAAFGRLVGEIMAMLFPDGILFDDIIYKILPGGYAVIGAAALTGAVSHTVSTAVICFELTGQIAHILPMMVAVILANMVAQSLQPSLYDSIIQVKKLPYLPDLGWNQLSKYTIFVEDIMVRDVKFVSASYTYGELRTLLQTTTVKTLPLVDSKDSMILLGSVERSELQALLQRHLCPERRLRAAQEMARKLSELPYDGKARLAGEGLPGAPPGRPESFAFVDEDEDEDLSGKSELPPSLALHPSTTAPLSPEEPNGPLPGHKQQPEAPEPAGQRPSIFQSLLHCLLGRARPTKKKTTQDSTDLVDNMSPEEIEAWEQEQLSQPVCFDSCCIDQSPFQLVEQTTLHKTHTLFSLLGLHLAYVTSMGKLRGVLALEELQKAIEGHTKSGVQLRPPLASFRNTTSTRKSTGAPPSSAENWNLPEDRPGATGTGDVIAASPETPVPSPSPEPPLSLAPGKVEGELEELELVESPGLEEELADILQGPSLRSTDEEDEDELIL
Description: The investigatory goal of these experiments was to evaluate how compounds affect the open probability and current amplitude of human CIC-1 channels expressed in CHO cells. Experiments were performed using an automated patch clamp system that allowed high throughput testing of whole cell patches together with both intracellular and extracellular addition of compound.
Automated whole cell patch clamp experiments were performed with the Qpatch 16 system (Sophion Bioscience, Ballerup, Denmark) at room temperature. Data acquisition and analysis were performed in the Qassay software (ver. 5.6, Odense).
To evoke CIC-1 currents in whole cell patches, the membrane potential was initially stepped from a holding potential of −30 mV to +60 mV for 100 ms and then to various test voltages (sweeps) ranging from +120 mV to −140 mV in steps of 20 mV for 300 ms. To obtain tail currents, the membrane potential was stepped to −100 mV after each test voltage for 300 ms and then relaxed to −30 mV for 2 sec between sweeps (FIG. 3). I/V relationships for whole cell instant and steady state current amplitudes were obtained by plotting average current densities at the beginning and at the end of the 300 ms step against the membrane potential (FIG. 4).
In order to determine the relative overall open probability (P0), the instantaneous tail currents were normalized to the maximal tail current obtained following the most positive voltage step and plotted against the test voltage. Plots of normalized tail currents from each whole cell patch were then fitted to a Boltzmann function allowing determination of half activation voltages (V1/2, FIG. 5).
For automated patch clamp experiments extracellular solutions contained: 2 mM CaCl2, 1 mM MgCl2, 10 mM HEPES, 4 mM KCl, 145 mM NaCl, 10 mM Glucose, pH adjusted to 7.4 with NaOH (2 M). Osmolality adjusted to ˜320 using sucrose.
Intracellular solutions contained: 80 mM CsF, 60 mM CsCl, 5/1 mM KOH/EGTA, 10 mM HEPES, 10 mM NaCl, pH adjusted to 7.2 with NaOH (2 M). Osmolality adjusted to ˜320 mOsm using sucrose.
Cells used in patch clamp experiments were Chinese hamster ovary cells (CHO) constitutively expressing human CIC-1 channels. The amino acid sequence encoded by the cDNA used to create this cell line was identical to the translated sequence for GenBank accession number NM_000083.2. Cells were produced by Charles River (Catalogue CT6175, Cleveland Ohio, USA) in a cryopreserved format. Experiments were performed on the cells directly after thawing (3×10^6 cells used in each experiment).
To evaluate the compound effect on CIC-1, when applied directly to the intracellular side of the cell membrane, the half activation voltage, V1/2, was determined from whole cell patches with compound added to the intracellular solution and then compared to V1/2 determined from control cell patches with only vehicle added to the intracellular solution. Additionally, the effect of extracellular added compound was evaluated by determine V1/2 and steady state current amplitudes before and after exchanging the extracellular solution to contain compound.
The difference in half activation voltage of CIC-1 channels, […]V1/2, was determined as the difference between the cell patches treated intracellularly with compound and control cells patches and is reported in Table 4 below. A positive shift in […]V1/2 is reflecting CIC-1 channel inhibition by the tested compound. P-values of <0.05 is considered significant.

rat soleus muscles [4] = assay: Tubocurarine concentration required to depress nerve-stimulated force by 50% (Kd,tub), combination with acetylcholinesterase inhibitors
Description: FIGS. 5A-5E. […] Muscles from 4-week-old rats were stimulated to contract by activating the motor nerve with short duration pulses in field stimulation. Muscles contracted every 10 min for 2 s in response to 30 Hz stimulation. Four different experimental conditions were used. […] After this pre-incubation, increasing concentrations of tubocurarine were added to the bath solutions with 60 min (corresponding to six contractions) between each increase in tubocurarine. […] FIG. 5C similar to FIG. 5A but this muscle had been pre-incubated with neostigmine. […] The force integral (AUC) was determined at each tubocurarine concentration. Such AUC determinations were plotted against tubocurarine concentration for each muscle.
CIC-1 is a novel target in treatment of neuromuscular complications and it was therefore explored whether this approach for symptomatic treatment could be used in combination with existing symptomatic treatment approaches. In myasthenia gravis, which in isolated muscles was mimicked by tubocurarine, the symptoms of muscle fatigue are most commonly treated with inhibitors of acethylcholineesterase of which neostigmine and pyridostigmine are examples. Also, neostigmine is the most commonly used reversal agent of neuromuscular blocked after surgery. […] FIG. 5A-D show recordings of nerve-stimulated force production at different tubocurarine concentrations when tested under the four experimental conditions. […] To quantify the effect of compounds on tubocurarine sensitivity, the force at the different tubocurarine concentrations was determined. In plots of nerve-stimulated force against tubocurarine concentration (FIG. 5E) Kd,tub was determined by fitting four parameter sigmoidal functions to the data and the Kd,tub for the different compounds have been collected in Table 4.

[5] = Rattus norvegicus, 40 min; read-out: 50 μM % change after addition

SMILES	ΔV½ (human CIC-1 channels) [mV]	activation at 50 µM [2, 5] [%]	also measured
Nc1ccncc1N [3,4-AP, 3,4-diaminopyridine, reference compound]	–	–	Kd (rat soleus muscles [1]): 5.8 ± 0.3 mM
O=C(O)c1c2ccccc2cc2ccccc12 [Compound 9-AC, 9-anthracenecarboxylic acid, reference compound]	–	–	recovery of force and M-wave signal ([2]; tubocurarine): marked recovery of both force and M-wave signal; recovery of force and M-wave signal [3]: marked recovery of both force and M-wave signal
C[C@H](Oc1ccc(Cl)cc1C1CC1)C(=O)O [Compound A-4, (2S)-2-(4-chloro-2-cyclopropylphenoxy)propanoic acid]	8.8	–	–
C=Cc1cc(Br)ccc1O[C@@H](C)C(=O)O [Compound A-17, (2S)-2-(4-bromo-2-ethenylphenoxy)propanoic acid]	10.3	–	–
C#Cc1cc(Br)ccc1O[C@@H](C)C(=O)O [Compound A-19, (2S)-2-(4-bromo-2-ethynylphenoxy)propanoic acid]	7.7	–	–
C#Cc1cc(Cl)ccc1O[C@@H](C)C(=O)O [Compound A-20, (2S)-2-(4-chloro-2-ethynylphenoxy)propanoic acid]	26.4	–	–
CCC(=O)c1cc(Cl)ccc1O[C@@H](C)C(=O)O [Compound A-30, (2S)-2-(4-chloro-2-propanoylphenoxy)propanoic acid]	6.2	–	–
C[C@H](Oc1ccc(Br)cc1C=C(F)F)C(=O)O [Compound A-36, (2S)-2-[4-bromo-2-(2,2-difluoroethenyl)phenoxy]propanoic acid]	21.5	–	–
C[C@H](OCc1ccccc1)C(=O)O [Compound C5, (2S)-2-(benzyloxy)propanoic acid]	–	-7	–
CC(C(=O)O)S(=O)(=O)c1ccc(F)cc1 (centres unmarked) [Compound C6, 2-(4-fluorobenzenesulfonyl)propanoic acid]	–	-11	–
CCC(Oc1ccc(Cl)cc1)C(=O)O (centres unmarked) [Compound C7, 2-(4-chlorophenoxy)butanoic acid]	–	-12	–
NCC(Oc1ccc(F)cc1)C(=O)O (centres unmarked) [Compound C9, 3-amino-2-(4-fluorophenoxy)propanoic acid hydrochloride]	–	-14	–
CC(Oc1ccc(Cl)cc1)C(=O)Oc1ccc(Cl)cc1 (centres unmarked) [Compound C11, 4-chlorophenyl 2-(4-chlorophenoxy)propanoate]	–	–	activation at 50 µM ([2]; Rattus norvegicus, 40 min, read-out: 50 μM % change after addition): 46%
COCC(C)C(Oc1ccc(Br)cc1)C(=O)O (centres unmarked) [Compound C21, 2-(4-bromophenoxy)-4-methoxy-3-methylbutanoic acid]	–	-3	–
CN(C)C(=O)Oc1cccc([N+](C)(C)C)c1 [Neostigmine, neostigmine, reference compound]	–	–	Kd (rat soleus muscles [4]; Neostigmine (10 nM) alone): 166 ± 13 nM
CN(C)C(=O)Oc1ccc[n+](C)c1 [Pyridostigmine, pyridostigmine, reference compound]	–	–	Kd (rat soleus muscles [4]; Pyridostigmine (100 nM) alone): 127 ± 15 nM
